In general, Kd refers to a measure of binding affinity in units of concentration. High values mean a looser complex, low ones a tighter complex.

Structures are written as SMILES.

The target of this assay is T1, human Hsp90α N-terminal domain (Homo sapiens, UniProt P07900).
T1 construct: Cloning, expression, and purification of the Human Hsp90α N-terminal domain were performed according to published methods; made in house
Briefly: Isothermal titration calorimetry (ITC). The settings on record: 25 mM Tris, 100 mM NaCl, 1 mM MgCl2, 1 mM TCEP, 5% DMSO, pH 7.4. It is filed as binding. On the procedure: The ability of the compounds of the invention to bind to human Hsp90 proteins was determined using isothermal titration calorimetry.
Isothermal titration calorimetry (ITC) experiments were performed with a VP-ITC titration calorimeter (Microcal Inc., Northampton, Mass., USA). […] All solutions were filtered and degassed prior to a titration being carried out. The enthalpy change resulting from each injection of ligand was obtained through integration of the calorimetric signal. Data were analysed using Origin 7.0 (Microcal Software Inc., Northampton, Mass.). Heats of dilution were estimated using the final injections of each individual titration and subtracted before data fitting. Different ITC experimental formats were employed in order to obtain compound dissociation constants (Kd's) over a wide range of affinities. […] In this type of experiment the stoichiometry parameter (N) was locked at 1 for data fitting.
(In general: In ITC the heat of successive injections is recorded.)
In turn, `Cc1cccc(-c2cc(Cl)nc(N)n2)c1Cl` [Example 76, 4-Chloro-6-(2-chloro-3-methyl-phenyl)-pyrimidin-2-yl-amine] returned a dissociation constant Kd of less than 1 µM.

With `COc1cccc(OCCN2CCOCC2)c1-c1cc(Cl)nc(N)n1` [Example 48, 4-Chloro-6-[2-methoxy-6-(2-morpholin-4-yl-ethoxy)-phenyl]-pyrimidin-2-ylamine], the Kd is less than 1 µM.

Molecule `CC(C)(C)OC(=O)NCCCOc1cccc(Cl)c1-c1cc(Cl)nc(N)n1` [Example 53, {3-[2-(2-Amino-6-chloro-pyrimidin-4-yl)-3-chloro-phenoxy]-propyl}-carbamic acid tert-butyl ester] yielded a Kd of less than 1 µM.

Consider `COc1c(CC(C)(C)C)cccc1-c1cc(Cl)nc(N)n1` [Example 71, 4-Chloro-6-[3-(2,2-dimethyl-propyl)-2-methoxy-phenyl]-pyrimidin-2-yl-amine], for which the Kd was less than 1 µM.

The molecule `COc1cc(-c2cc(Cl)nc(N)n2)c(Cl)cc1Cl` [Example 61, 4-Chloro-6-(2,4-dichloro-5-methoxy-phenyl)-pyrimidin-2-ylamine] returned a Kd of less than 1 µM.

Turning to `COc1ccc(-c2c(OC)ccc(Br)c2OC)c(OC)c1-c1cc(Cl)nc(N)n1` [Example 46, 4-(3′-Bromo-2,4,2′,6′-tetramethoxy-biphenyl-3-yl)-6-chloro-pyrimidin-2-ylamine], the dissociation constant (Kd) is less than 1 µM.

As for `Nc1nccc(-c2ccc(Cl)cc2Cl)n1` [Example 60, 4-(2,4-Dichloro-phenyl)-pyrimidin-2-ylamine], the dissociation constant (Kd) is less than 10 µM.

With `Nc1nc(Cl)cc(-c2cc(OCc3ccccc3)c(Cl)cc2Cl)n1` [Example 78, 4-(5-Benzyloxy-2,4-dichloro-phenyl)-6-chloro-pyrimidin-2-yl-amine], the equilibrium dissociation constant (Kd) is less than 1 µM.

Molecule `CCOc1ccc(-c2cc(Cl)nc(N)n2)c(Cl)c1` [Example 29] displayed a dissociation constant (Kd) of less than 1 µM.

Consider `Nc1nc(Cl)cc(-c2cc(OCCN3CCOCC3)c(Cl)cc2Cl)n1` [Example 80, 4-Chloro-6-[2,4-dichloro-5-(2-morpholin-4-yl-ethoxy)-phenyl]-pyrimidin-2-yl-amine], for which the equilibrium dissociation constant (Kd) is less than 1 µM.

For the molecule `CCOC(=O)C(C)Oc1ccc(-c2cc(Cl)nc(N)n2)c(Cl)c1` (stereo not shown) [Example 67], the dissociation constant Kd is less than 1 µM.

As for `Nc1nc(Cl)cc(-c2ccc(Cl)cc2Cl)n1` [Example 30, 4-Chloro-6-(2,4-dichloro-phenyl)-pyrimidin-2-yl-amine], the Kd is less than 1 µM.

`NCCOc1cccc(Cl)c1-c1cc(Cl)nc(N)n1` [Example 56, 4-[2-(2-Amino-ethoxy)-6-chloro-phenyl]-6-chloro-pyrimidin-2-yl-amine] yielded an equilibrium dissociation constant (Kd) of less than 1 µM.

In the case of `COc1cccc(OCC(C)C)c1-c1cc(Cl)nc(N)n1` [Example 47, 4-Chloro-6-(2-isobutoxy-6-methoxy-phenyl)-pyrimidin-2-ylamine], the Kd was less than 1 µM.

Take `COc1ccc(-c2cc(Cl)nc(N)n2)c(Cl)c1` [Example 73, 4-Chloro-6-(2-chloro-4-methoxy-phenyl)-pyrimidin-2-ylamine]: the Kd is less than 1 µM.

In turn, `CCOC(=O)C(C)(C)Oc1ccc(-c2cc(Cl)nc(N)n2)c(Cl)c1` [Example 68, 2-[4-(2-Amino-6-chloro-pyrimidin-4-yl)-3-chloro-phenoxy]-2-methyl-propionic acid ethyl ester] yielded a Kd of less than 1 µM.

In turn, `COc1ccc(Cl)c(-c2cc(Cl)nc(N)n2)c1` [Example 49, 4-Chloro-6-(2-chloro-5-methoxy-phenyl)-pyrimidin-2-ylamine] had a dissociation constant Kd of less than 1 µM.

`CC(C#N)Oc1ccc(-c2cc(Cl)nc(N)n2)c(Cl)c1` (stereo not shown) [Example 75, 2-[4-(2-Amino-6-chloro-pyrimidin-4-yl)-3-chloro-phenoxy]-propionitrile] displayed a dissociation constant (Kd) of less than 1 µM.

Take `CC(C)(C)OC(=O)N1CCC(COC(=O)C(C)(C)Oc2ccc(-c3cc(Cl)nc(N)n3)c(Cl)c2)CC1` [Example 82, 4-{2-[4-(2-Amino-6-chloro-pyrimidin-4-yl)-3-chloro-phenoxy]-2-methyl-propionyloxy-methyl}-piperidine-1-carboxylic acid tert-butyl ester]: the Kd is less than 1 µM.

Regarding `CN(C)CCOc1cccc(Cl)c1-c1cc(Cl)nc(N)n1` [Example 55, 4-Chloro-6-[2-chloro-6-(2-dimethylamino-ethoxy)-phenyl]-pyrimidin-2-yl amine], the Kd is less than 1 µM.

For the molecule `COc1cc(OC)c(-c2cc(Cl)nc(N)n2)c(OC)c1` [Example 27, 4-Chloro-6-(2,4,6-trimethoxy-phenyl)-pyrimidin-2-yl-amine], the dissociation constant Kd was less than 1 µM.

In the case of `CC(C)Oc1ccc(-c2cc(Cl)nc(N)n2)c(Cl)c1` [Example 65, 4-Chloro-6-(2-chloro-4-isopropoxy-phenyl)-pyrimidin-2-ylamine], the equilibrium dissociation constant (Kd) is less than 1 µM.

`CC(C)(C)Cc1cccc(-c2cc(Cl)nc(N)n2)c1Cl` [Example 72, 4-Chloro-6-[2-chloro-3-(2,2-dimethyl-propyl)phenyl]-pyrimidin-2-yl-amine] registered a Kd of less than 1 µM.

In turn, `COc1cccc(-c2cc(Cl)nc(N)n2)c1Cl` [Example 69, 4-Chloro-6-(2-chloro-3-methoxy-phenyl)-pyrimidin-2-yl-amine] yielded a Kd of less than 1 µM.

In the case of `COc1cccc(OCCN2CCCCC2)c1-c1cc(Cl)nc(N)n1` [Example 52, 4-Chloro-6-[2-methoxy-6-(2-piperidin-1-yl-ethoxy)-phenyl]-pyrimidin-2-ylamine], the equilibrium dissociation constant (Kd) was less than 10 µM.

Turning to `COc1ccccc1-c1cc(C(F)F)nc(N)n1` [Example 58, 4-Difluoro-methyl-6-(2-methoxy-phenyl)-pyrimidin-2-ylamine], the Kd was less than 30 µM.

`Nc1ncc(-c2cn[nH]c2)c(-c2ccc(Cl)cc2Cl)n1` [Example 63, 4-(2,4-Dichloro-phenyl)-5-(1H-pyrazol-4-yl)-pyrimidin-2-ylamine] returned an equilibrium dissociation constant (Kd) of less than 10 µM.

Consider `CCOC(=O)COc1ccc(-c2cc(Cl)nc(N)n2)c(Cl)c1` [Example 66, [4-(2-Amino-6-chloropyrimidin-4-yl)-3-chloro-phenoxy]-acetic acid ethyl ester], for which the dissociation constant (Kd) was less than 1 µM.

The molecule `CC(C)(C)OC(=O)NCCOc1cccc(Cl)c1-c1cc(Cl)nc(N)n1` [Example 57] gave a Kd of less than 1 µM.

As to `COc1cccc(OC)c1-c1cc(C)nc(N)n1` [Example 1, 4-(2,6-Dimethoxy-phenyl)-6-methyl-pyrimidin-2-ylamine], the dissociation constant Kd is less than 10 µM.

Turning to `CCN(CC)CCOc1cc(-c2cc(Cl)nc(N)n2)c(Cl)cc1Cl` [Example 79, 4-Chloro-6-[2,4-dichloro-5-(2-diethylamino-ethoxy)-phenyl]-pyrimidin-2-yl-amine], the equilibrium dissociation constant (Kd) was less than 1 µM.

Regarding `CCOc1ccc2ccccc2c1-c1cc(Cl)nc(N)n1` [Example 44, 4-Chloro-6-(2-ethoxy-naphthalen-1-yl)-pyrimidin-2-ylamine], the equilibrium dissociation constant (Kd) was less than 10 µM.

Molecule `COc1cccc(-c2cc(Cl)nc(N)n2)c1OC` [Example 70, 4-Chloro-6-(2,3-dimethoxy-phenyl)-pyrimidin-2-yl-amine] yielded a Kd of less than 1 µM.

`COc1cc(Cl)cc(Cl)c1-c1cc(Cl)nc(N)n1` [Example 59, 4-Chloro-6-(2,4-dichloro-6-methoxy-phenyl)-pyrimidin-2-ylamine] gave a Kd of less than 1 µM.

Turning to `Nc1ncc(Br)c(-c2ccc(Cl)cc2Cl)n1` [Example 62, 5-Bromo-4-(2,4-dichloro-phenyl)-pyrimidin-2-ylamine], the dissociation constant Kd was less than 30 µM.

Molecule `Nc1nc(Cl)cc(-c2ccncc2Cl)n1` [Example 50, 4-Chloro-6-(3-chloro-pyridin-4-yl)-pyrimidin-2-ylamine] gave a Kd of less than 1 µM.

`NC(=O)COc1cc(-c2cc(Cl)nc(N)n2)c(Cl)cc1Cl` [Example 81, 2-[5-(2-Amino-6-chloro-pyrimidin-4-yl)-2,4-dichloro-phenoxy]-acetamide] displayed a dissociation constant Kd of less than 1 µM.

Molecule `COc1ccc2ccccc2c1-c1cc(Cl)nc(N)n1` [Example 51, 4-Chloro-6-(2-methoxy-naphthalen-1-yl)-pyrimidin-2-ylamine] showed a Kd of less than 1 µM.

As to `COc1cccc(OC)c1-c1cc(Cl)nc(N)n1` [Example 4, 4-Chloro-6-(2,6-dimethoxy-phenyl)-pyrimidin-2-ylamine], the Kd was less than 1 µM.

In the case of `COc1ccc(-c2ccccc2)c(OC)c1-c1cc(Cl)nc(N)n1` [Example 45, 4-Chloro-6-(2,4-dimethoxy-biphenyl-3-yl)-pyrimidin-2-ylamine], the Kd was less than 10 µM.

Molecule `CC(C)(Oc1ccc(-c2cc(Cl)nc(N)n2)c(Cl)c1)C(=O)OCC1CCNCC1` [Example 83, 2-[4-(2-Amino-6-chloro-pyrimidin-4-yl)-3-chloro-phenoxy]-2-methyl-prop-ionic acid piperidin-4-ylmethyl ester] had a Kd of less than 1 µM.

With `COc1cccc(OCC2CCOCC2)c1-c1cc(Cl)nc(N)n1` [Example 21, 4-Chloro-6-[2-methoxy-6-(tetrahydro-pyran-4-yl-methoxy)-phenyl]-pyrimidin-2-yl-amine], the Kd is less than 1 µM.

On to `CN(C)CCOc1ccc(-c2cc(Cl)nc(N)n2)c(Cl)c1` [Example 74, 4-Chloro-6-[2-chloro-4-(2-dimethylamino-ethoxy)-phenyl]-pyrimidin-2-yl amine], for which the equilibrium dissociation constant (Kd) is less than 10 µM.

For `Nc1nc(Cl)cc(-c2ccc(O)cc2Cl)n1` [Example 64, 4-(2-Amino-6-chloro-pyrimidin-4-yl)-3-chloro-phenol], the dissociation constant Kd is less than 1 µM.

`CN(C)CCCOc1cccc(Cl)c1-c1cc(Cl)nc(N)n1` [Example 54] had a Kd of less than 1 µM.

Regarding `Nc1nc(Cl)cc(-c2cc(O)c(Cl)cc2Cl)n1` [Example 77, 5-(2-Amino-6-chloro-pyrimidin-4-yl)-2,4-dichloro-phenol], the Kd was less than 1 µM.

The values are drawn from patent US20090215777A1, “Pyrimidine Derivatives As HSP90 Inhibitors” (Astex Therapeutics Ltd., priority 2005, published 2009).
